± gives the expanded uncertainty stated by the source.
How the values were obtained:
[1] = 293.15 K; 101.33 kPa; Liquid; Vibrating tube method
[2] = refractive index (Na D-line) (dimensionless); details: 293.15 K; 101.33 kPa; Liquid; Standard Abbe refractometry

mass density [1] [kg/m3]	refractive index [2]	Structure (SMILES)
924.84 ± 2	1.45756 ± 0.0011	CC12CCC(CC1)C(C)(C)O2 [1,3,3-trimethyl-2-oxabicyclo[2.2.2]octane]
809.75 ± 2	1.39911 ± 0.001	CCCCO [butan-1-ol]
789.38 ± 2	1.36134 ± 0.001	CCO [ethanol]
791.2 ± 2	1.32826 ± 0.001	CO [methanol]
803.85 ± 2	1.38461 ± 0.001	CCCO [propan-1-ol]

From the NIST ThermoML archive (doi:10.1016/j.jct.2016.06.010)
